Results from patent US20240108618A1, “KRAS G12C INHIBITOR DOSING REGIMENS” (Eli Lilly and Company, priority 2022, published 2024).

Columns and labels:
KYSE-410 = KYSE-410 (esophagus) xenograft model; assay type: in vivo, mouse
Protocol: (§1) For xenograft models of H1373, HCC44, MiaPaca-2, SW1463, SW837, KYSE-410 and UM-UC-3, typically 5-10×10^6 cells in a 1:1 matrigel mix (0.2 mL total volume) are implanted by subcutaneous injection in hind leg of nude mice. […] Treatment is initiated with oral administration (gavage) of testing compound or vehicle (20% captisol, 25 mM phosphate, pH2.0) in 0.2 mL volume when tumor size reaches approximately 200-300 mg. Tumor growth and body weight are monitored over time to evaluate efficacy and signs of toxicity. For EL3187 PDX model, frozen vials containing tumor fragments are thawed at 37° C. in a water bath. The tumor fragments are transferred to 50 mL Falcon tube and the ice cold DMEM medium is slowly added into the tube to a total volume of 35 mL. Then the tumor fragments are centrifuged at 130×g for 2 minutes at 4° C. and supernatant is aspirated. This washing step is repeated twice and the tumor fragments are resuspended in 10 mL DMEM for implantation into athymic nude-Foxn1nu mice (Envigo RMS, Inc., Mount Comfort, Indiana). Once tumor volumes reach 800 to 1000 mm^3, animals are sacrificed and tumors are harvested using aseptic technique. Fresh tumors are cut into 10 to 15 mm^3 fragments and placed into cold Gibco hibernate medium. The tumor fragments are subcutaneously implanted into animals with a 10 g trochar needle. When tumor size reaches 200 to 300 mm^3, the animals are randomized for compound treatment.
(§2) Among models listed in Table 2, EL3187 is a patient-derived xenograft (PDX) model, and all other are tumor xenograft models.

EL3187 = EL3187 (lung) patient-derived xenograft (PDX) model; assay type: in vivo, mouse
Protocol: as §1, §2

SW1463 = SW1463 (CRC) xenograft model; assay type: in vivo, mouse
Protocol: as §1, §2

SW837 = SW837 (CRC) xenograft model; assay type: in vivo, mouse
Protocol: as §1, §2

MiaPaca-2 = MiaPaca-2 (pancreas) xenograft model; assay type: in vivo, mouse
Protocol: as §1, §2

[1] = Text: A “DLT” is defined as any of the treatment-emergent adverse event (TEAEs), as defined by the National Cancer Institute's Common Terminology Criteria for Adverse Events, version 5.0 (NCI CTCAE v5.0), deemed clinically significant and occurring during the first 21 days of study drug per dose level per patient, unless the adverse event (AE) can be clearly related to the patient's underlying disease, other medical condition, or concomitant medications including any AEs attributed by the Investigator to the combination agent alone. A TEAE is defined as an AE that starts or worsens on or after the date of the first dose of study drug (for example on Study Day 1) through 28 days (+14 days window) after the date of the last dose of study drug or the first date starting new anticancer therapy, whichever is earlier. A Serious TEAE is defined as an TEAE that is grade 3 or higher based on severity grade assignment as defined by the National Cancer Institute's Common Terminology Criteria for Adverse Events, version 5.0 (NCI CTCAE v5.0). A Fatal TEAE is defined as an TEAE that is grade 5 based on severity grade assignment as defined by the National Cancer Institute's Common Terminology Criteria for Adverse Events, version 5.0 (NCI CTCAE v5.0).
NCT04956640 includes Phase 1a dose escalation (Part A of NCT04956640, see Table 3) followed by a Phase 1b dose expansion (Parts B to E of NCT04956640, see Table 4). […] Phase 1b dose expansion will include 12 cohorts (See Table 4) to further evaluate safety and clinical activity.

H1373 = H1373 (lung) xenograft model; assay type: in vivo, mouse
Protocol: as §1, §2

HCC44 = HCC44 (lung) xenograft model; assay type: in vivo, mouse
Protocol: as §1, §2

In the case of C=CC(=O)N1CCN2C(=O)c3cc(F)c(-c4ccc(F)c5sc(N)c(C#N)c45)c(Cl)c3OCC[C@H]2C1 (single isomer, unassigned) [Formula I], the “tumor growth inhibition (%) or regression (− %)” value (shortened to “tumor growth inhibition … (− %)”) (KYSE-410; 10 mg/kg BID x28) is reported as 51.5%, the “tumor growth inhibition … (− %)” value (KYSE-410; 10 mg/kg QD x28) is reported as 25.3% and the “tumor growth inhibition … (− %)” value (KYSE-410; 30 mg/kg BID x28) is reported as 61.8%. For the same compound, the “tumor growth inhibition … (− %)” value (KYSE-410; 30 mg/kg QD x28) was 66.7%, the “tumor growth inhibition … (− %)” value (EL3187; 1 mg/kg BID x28) was 89.2% and the “tumor growth inhibition … (− %)” value (EL3187; 1 mg/kg QD x28) was 52%. For the same compound, the “tumor growth inhibition … (− %)” value (EL3187; 3 mg/kg BID x28) was −91%, the “tumor growth inhibition … (− %)” value (EL3187; 3 mg/kg QD x28) was −39.8% and the “tumor growth inhibition … (− %)” value (EL3187; 10 mg/kg BID x28) was −96%. For the same compound, the “tumor growth inhibition … (− %)” value (EL3187; 10 mg/kg QD x28) was −96%, the “tumor growth inhibition … (− %)” value (SW1463; 5 mg/kg BID x28) was 48.8% and the “tumor growth inhibition … (− %)” value (SW1463; 5 mg/kg QD x28) was 52.5%. For the same compound, the “tumor growth inhibition … (− %)” value (SW1463; 10 mg/kg BID x28) was 79.5%, the “tumor growth inhibition … (− %)” value (SW1463; 10 mg/kg QD x28) was 78.3% and the “tumor growth inhibition … (− %)” value (SW1463; 30 mg/kg BID x28) was 98.8%. For the same compound, the “tumor growth inhibition … (− %)” value (SW1463; 30 mg/kg QD x28) was 89.8%, the “tumor growth inhibition … (− %)” value (SW837; 5 mg/kg BID x28) was 83.6% and the “tumor growth inhibition … (− %)” value (SW837; 5 mg/kg QD x28) was 18.2%. For the same compound, the “tumor growth inhibition … (− %)” value (SW837; 10 mg/kg BID x28) was 62.1%, the “tumor growth inhibition … (− %)” value (SW837; 10 mg/kg QD x28) was 95.2% and the “tumor growth inhibition … (− %)” value (SW837; 30 mg/kg BID x28) was −23.8%. For the same compound, the “tumor growth inhibition … (− %)” value (SW837; 30 mg/kg QD x28) was 83.5%, the “tumor growth inhibition … (− %)” value (MiaPaca-2; 5 mg/kg BID x28) was −36.1% and the “tumor growth inhibition … (− %)” value (MiaPaca-2; 5 mg/kg QD x28) was 81.7%. The “tumor growth inhibition … (− %)” value (MiaPaca-2; 10 mg/kg BID x28) was −45.2%, the “tumor growth inhibition … (− %)” value (MiaPaca-2; 10 mg/kg QD x28) was −27% and the “tumor growth inhibition … (− %)” value (MiaPaca-2; 30 mg/kg BID x28) was −43.6%. The “tumor growth inhibition … (− %)” value (MiaPaca-2; 30 mg/kg QD x28) was −42%, the “discontinuation due to TRAE” value ([1]; 50 mg BID) was “one” and the “rate of immune-related AEs, including hepatoxicity” value ([1]; 50 mg BID and 100 mg BID) was “low rate of immune-related AEs”. For the same compound, the dose reductions ([1]; 50 mg and 100 mg BID) was “no dose reductions”, the “tumor growth inhibition … (− %)” value (H1373; 5 mg/kg BID x28) was −26.3% and the “tumor growth inhibition … (− %)” value (H1373; 5 mg/kg QD x28) was 97.9%. For the same compound, the “tumor growth inhibition … (− %)” value (H1373; 10 mg/kg BID x28) was −49%, the “tumor growth inhibition … (− %)” value (H1373; 10 mg/kg QD x28) was −21.3% and the “tumor growth inhibition … (− %)” value (H1373; 30 mg/kg QD x28) was −49.7%. For the same compound, the “tumor growth inhibition … (− %)” value (HCC44; 5 mg/kg BID x28) was 57.5%, the “tumor growth inhibition … (− %)” value (HCC44; 5 mg/kg QD x28) was 28.3% and the “tumor growth inhibition … (− %)” value (HCC44; 10 mg/kg BID x28) was 61.8%. The “tumor growth inhibition … (− %)” value (HCC44; 10 mg/kg QD x28) was 32.7%, the “tumor growth inhibition … (− %)” value (HCC44; 30 mg/kg BID x28) was 84.1% and the “tumor growth inhibition … (− %)” value (HCC44; 30 mg/kg QD x28) was 77%.
